Converted amounts (≈) assume the structure as drawn. Values belong to the compound of their own block, whether it stands above or below them.
Tests used:
K562 = assay: Antiproliferative activity against human K562 cells assessed as cell growth inhibition measured after 24 hrs by MTT assay; assay type: functional, cell-based; conditions: K562, 24 h
Enterococcus faecalis = assay: Antibacterial activity against Enterococcus faecalis assessed as bacterial growth inhibition incubated for 24 hrs; assay type: functional, organism-based
Staphylococcus aureus = assay: Antibacterial activity against Staphylococcus aureus assessed as bacterial growth inhibition incubated for 24 hrs; assay type: functional, organism-based
Escherichia coli = assay: Antibacterial activity against Escherichia coli assessed as bacterial growth inhibition incubated for 24 hrs; assay type: functional, organism-based
[1] = system: Human immunodeficiency virus 1; assay: Antiviral activity against HIV-1 infected in human C8166 cells; assay type: functional, organism-based; conditions: Human immunodeficiency virus 1, C8166
Pseudomonas aeruginosa [2] = assay: Antibiofilm activity against Pseudomonas aeruginosa MTCC 7814 assessed as inhibition of biofilm formation at 0.1 mM in presence of azithromycin or gentamicin incubated for 48 hrs relative to control; assay type: functional; conditions: MTCC 7814, 48 h
Klebsiella aerogenes = assay: Antibacterial activity against Klebsiella aerogenes assessed as bacterial growth inhibition by agar dilution method; assay type: functional
Pseudomonas aeruginosa [3] = assay: Antibacterial activity against Pseudomonas aeruginosa assessed as bacterial growth inhibition by agar dilution method; assay type: functional
Rattus norvegicus [4] = assay: Anti-inflammatory activity against egg white-induced paw edema in rat model assessed as detumescence rate measured after 6 hrs relative to control; assay type: functional
[5] = Antimigratory activity against human LX2 cells assessed as inhibition rate at 5 uM relative to control; assay type: functional; conditions: LX-2
[6] = Antimigratory activity against Ang II-induced human Cardiac fibroblast cells assessed as inhibition rate at 0.16 uM relative to control; assay type: functional
[7] = Inhibition of TGF-beta1 induced mesenchymal transformation in human A549 cells assessed as inhibition rate at 1.25 uM relative to control; assay type: functional
MCF7 = assay: Antiproliferative activity against human MCF7 cells assessed as cell growth inhibition measured after 24 hrs by MTT assay; assay type: functional, cell-based; conditions: MCF7, 24 h
Rattus norvegicus [8] = assay: Anti-fibrotic activity in rat model of unilateral ureteral obstruction-induced renal fibrosis assessed as inhibition rate at 0.15 mmol/Kg relative to control; assay type: functional; conditions: Kidney
Rattus norvegicus [9] = assay: Anti-fibrotic activity in rat model of isoproterenol-induced myocardial fibrosis assessed as inhibition rate at 15 mg/kg relative to control; assay type: functional; conditions: Myocardium
Rattus norvegicus [10] = assay: Anti-fibrotic activity in rat model of bleomycin-induced lung fibrosis assessed as inhibition rate at 250 mg/kg relative to control; assay type: functional
Rattus norvegicus [11] = species: Rattus norvegicus; assay: Antiplatelet activity against thrombin-induced Sprague-Dawley rat platelet aggregation assessed as inhibition of platelet aggregation preincubated for 2 mins followed by thrombin addition by turbidimetric method; assay type: functional; conditions: Arterial blood
Rattus norvegicus [12] = species: Rattus norvegicus; assay: Antiplatelet activity against arachidonic acid-induced Sprague-Dawley rat platelet aggregation assessed as inhibition of platelet aggregation preincubated for 2 mins followed by arachidonic acid addition by turbidimetric method; assay type: functional; conditions: Arterial blood
Rattus norvegicus [13] = species: Rattus norvegicus; assay: Antiplatelet activity against collagen-induced Sprague-Dawley rat platelet aggregation assessed as inhibition of platelet aggregation preincubated for 2 mins followed by collagen addition by turbidimetric method; assay type: functional; conditions: Arterial blood

SMILES: C=C1CCC2[C@](C)(CO)[C@H](O)CC[C@@]2(C)[C@@H]1C/C=C1/C(=O)OC[C@@H]1Oc1cccc2cccnc12 (some centres undefined)
- IC50 (Enterococcus faecalis): 6.3 µM
- IC50 (Staphylococcus aureus): 37.5 µM
- IC50 (Escherichia coli): 21.6 µM

SMILES: C=C1CCC2[C@](C)(CO)[C@H](O)CC[C@@]2(C)[C@@H]1/C=C/C1=CCOC1=O (some centres undefined)
- inhibition at 100 µM (Pseudomonas aeruginosa [2]): 92%

SMILES: C[C@@]12CCC3[C@](C)(COC(=O)CCC(=O)O)[C@H](OC(=O)CCC(=O)O)CC[C@@]3(C)[C@@H]1CC(C1=CCOC1=O)O2 (some centres undefined)
- inhibition (INH) (Rattus norvegicus [4]): 93.18%

SMILES: C=C1CCC2[C@](C)(CO)C(=O)CC[C@@]2(C)[C@@H]1C/C=C1/C(=O)OC[C@@H]1Oc1cccc2cccnc12 (some centres undefined)
- IC50 (Enterococcus faecalis): 9.1 µM
- IC50 (Staphylococcus aureus): 27.6 µM
- IC50 (Escherichia coli): 27.9 µM

SMILES: C=C1CCC2[C@](C)(CO)NC(=O)CC[C@@]2(C)[C@@H]1/C=C/C1=CCOC1=O (some centres undefined)
- inhibition at 5 µM [5]: > 40%
- inhibition at 0.16 µM [6]: > 95%
- inhibition at 1.25 µM [7]: > 60%

SMILES: C=C1CCC2[C@](C)(CO)[C@H](O)CC[C@@]2(C)[C@@H]1/C=C/C1=CC(=C\c2ccc(Cl)cc2)/OC1=O (some centres undefined)
- inhibition in vivo at 150 µmol/kg (Rattus norvegicus [8]): > 85%
- inhibition in vivo at 15 mg/kg (Rattus norvegicus [9]): > 90%
- inhibition in vivo at 250 mg/kg (Rattus norvegicus [10]): > 85%

Results, then the compound that gave them:

- IC50 (K562): 8 µM
SMILES: C=C1CCC2[C@]3(C)COC(c4ccc(OCc5cn(-c6ccc(C(C)=O)cc6)nn5)cc4)O[C@@H]3CC[C@@]2(C)[C@@H]1C/C=C1/C(=O)OCC1O (some centres undefined)

- IC50 [1]: 40.9 µM
SMILES: C=C1CCC2[C@](C)(CO)/C(=N\O)CC[C@@]2(C)[C@@H]1/C=C/C1=CCOC1=O (some centres undefined)

- MIC (Klebsiella aerogenes): 18.9 µg/mL (≈ 47.7 µM)
- MIC (Pseudomonas aeruginosa [3]): 18.9 µg/mL (≈ 47.7 µM)
SMILES: C=C1CCC2[C@](C)(CO)[C@H](O)CC[C@@]2(C)[C@@H]1C/C=C(/C(=O)OCC)[C@H](O)CO (some centres undefined)

- IC50 [1]: 4.1 µM
SMILES: C=C1CCC2[C@](C)(CO)[C@H](O)CC[C@@]2(C)[C@@H]1CCC1C(=O)N(C)C[C@H]1O (some centres undefined)

- IC50 (K562): 1.55 µM
- IC50 (MCF7): 2.91 µM
SMILES: C=C1CCC2[C@](C)(CO)[C@H](OC(=O)CCC(=O)OC(C)CCOc3no[n+]([O-])c3S(=O)(=O)c3ccccc3)CC[C@@]2(C)[C@@H]1/C=C/C1=CCOC1=O (some centres undefined)

- IC50 (Rattus norvegicus [11]): 0.36 µM
- IC50 (Rattus norvegicus [12]): 0.48 µM
- IC50 (Rattus norvegicus [13]): 0.5 µM
SMILES: C=C1CCC2[C@](C)(COC(=O)CCC(=O)O)[C@H](OC(=O)CCC(=O)O)CC[C@@]2(C)[C@@H]1/C=C/c1cc(=O)oc2cc(OC(C)=O)ccc12 (some centres undefined)

Source: ChEMBL document CHEMBL5236551, “Andrographolide and its derivatives: Current achievements and future perspectives” (Eur J Med Chem, 2021)
